Data published in patent publication US6440946B1, “Multiple-agents-binding compound, production and use thereof” (Takeda Chemical Industries, Ltd., priority 1999, dated 2002).

Assays:
recombinant HIV protease = target: T1, recombinant HIV protease (Human immunodeficiency virus type 1 group M subtype B, UniProt P12497); assay: HIV protease inhibitory activity (cleavage of synthetic nonapeptide substrate, reverse phase HPLC); format: biochemical; details: pH5.5, 37° C., 60 minutes; for inhibition at 5 µM / Inhibition of HIV protease (inhibitory rate): final concentration of Test Compound 5 μM; for inhibition at 5 µM: read-out: Inhibition of HIV protease (inhibitory rate)
T1 construct: Instead of natural HIV protease, recombinant HIV protease already reported in the literature
Experimental: HIV protease inhibitory activity of the compounds of the present invention [Compounds of Working Examples 1-7] was evaluated according to the test method already reported in the literature (Journal of Synthetic Organic Chemistry, Japan, 52,403-412 (1994), Japanese Patent Unexamined Publication No. 1993-170722, etc.). In addition, using Compounds of Reference Examples 1-4, similar test was carried out.
Instead of natural HIV protease, recombinant HIV protease already reported in the literature (cf. Science, 230, 949 (1985)) was used for the evaluation of HIV protease inhibitory activity (cf. Japanese Patent Unexamined Publication No. 1993-170722, etc.). As the substrate of said recombinant HIV protease, synthetic nonapeptide substrate (Ac-Arg-Ala-Ser-Gln-Asn-Tyr-Pro-Val-Val-NH2 trifluoroacetate) was used, and protease activity was determined.
Fifteen μl of the reaction solution containing 100 mM (final concentration) of MES buffer solution (pH5.5), 40 mM of said substrate, 9.2 μg of said recombinant HIV protease, and various concentration of Test Compound (for example, Test Compound was previously dissolved in DMSO, etc.) was used, and the reaction was started after said recombinant HIV protease had been added to the reaction solution. The reaction was carried out at 37° C. for 60 minutes, and then, the reaction was stopped by addition of 15 μl of acetonitrile. The amount of the peptide fragment produced by cleaving the substrate between -Tyr . . . Pro- of said substrate was determined according to the internal standard method of reverse phase HPLC. When the concentration of test compound was zero, protease activity was defined as 100%; when the peptide fragment was not detected, remaining protease activity was defined as 0%; and remaining protease activity was calculated based on the determined concentration of the peptide fragment. When the remaining protease activity was 0%, inhibition rate which indicates activity inhibiting HIV protease was defined as 100%, and the inhibition rate was defined according to the value taken the remaining protease activity indicated by said percentage from 100%.
(§1) The results of HIV protease inhibitory activity and anti-HIV activity of the compound of the present invention evaluated by the above-mentioned methods were shown in Table 1, together with the results of Compound of Reference Example. In Table 1, HIV protease inhibitory activity is shown as the inhibitory rate when the final concentration of Test Compound in the reaction solution was 5 μM, and the values in parentheses correspond to the inhibitory rate when the final concentration of Test Compound in the reaction solution was 50 nM.

[1] = system: HIV-1 IIIB (HTLV-IIIB) virus in CEMM-SS cells; assay: Anti-HIV activity: prevention of death of HIV-infected T cell lymphocytes (MTT method); format: cell-based, HIV type 1 virus; details: 6 days
Experimental: Anti-HIV activity of the compounds of the present invention was evaluated according to the method described below.
The inhibitory effect on virus particle formation of HIV virus with which T cell lymphocytes were infected was evaluated according to ability to prevent T cell lymphocytes infected with said HIV virus from dying.
According to the test method described in the literature (O. S. Weislow et al., J. Natl. Cancer Inst., 81, 577 (1989), etc.), anti-HIV activity of the compounds of the present invention was evaluated. As the T cell lymphocytes, CEMM-SS cells were used. As the HIV virus, HIV-1 IIIB (HTLV-IIIB) virus which is HIV type 1 virus was used. On 96 well microtiter plate containing 200 μl of culture medium (RPMI-1640 medium containing 50 μg/ml of gentamicin and 10% fetal calf serum), determined concentration of Test Compound and HIV-1 IIIB virus (the mount of virus per well is that necessary for completely killing infected cells 6 days after infection), CEMM-SS cell (2.5×10^4 cells/ml) were inoculated and cultivated at 37° C. for 6 days in the incubator containing 5% CO2. Thereafter, the number of living cells was determined by the MTT method (R. Pauwels et al., J. Virol. Methods, 20, 309 (1988), etc.), and the determined value was defined as (ODT)HIV. HIV-non-infected CEMM-SS cells and HIV-infected CEMM-SS cells were respectively cultivated under the same conditions provided that the concentration of Test Compound was zero. Thereafter, the number of living cells was determined, and the respectively determined value was defined as (ODC)MOCK and (ODC)HIV. Using these values, (ODT)HIV, (ODC)MOCK and (ODC)HIV, inhibitory rate, ratio preventing T cell lymphocytes infected with said HIV virus from dying, was calculated according to the following formula:
[(ODT)HIV−(ODC)HIV][/(ODC)MOCK−(ODC)HIV]
Based on EC50 which is the concentration of Test Compound making the calculated inhibitory rate 50%, anti-HIV activity was evaluated.
as §1

[2] = Human immunodeficiency virus 1, 144 h
[3] = final concentration of Test Compound 50 nM

SMILES | EC50 [1, 2] [nM] | Inhibition of HIV protease (inhibitory rate, values in parentheses) (recombinant HIV protease; [3]) | Inhibition of HIV protease (inhibitory rate) (recombinant HIV protease) [%] | also measured
Cc1ccccc1CNC(=O)[C@@H]1CSCN1C(=O)[C@@H](O)[C@H](Cc1ccccc1)NC(=O)C(C)C(C)C(=O)OC[C@H]1O[C@@H](n2cc(C)c(=O)[nH]c2=O)CC1N=[N+]=[N-] (stereo partly drawn) [Working Ex. 5, {(2S,5R)-3-azido-5-[5-methyl-2,4-dioxo-3,4-dihydro-1(2H)-pyrimidinyl]tetrahydro-2-furanyl}methyl 4-([(1S,2S)-1-benzyl-2-hydroxy-3-((4R)-4-([(2-methylbenzyl)amino]carbonyl}-1,3-thiazolidin-3-yl)-3-oxopropyl]amino)-2,3-dimethyl-4-oxobutanoate] | 8.9 |  |  | inhibition at 5 µM (recombinant HIV protease; pH 5.5): 57%
CC(C)(C)NC(=O)[C@H]1N(C(=O)[C@@H](O)[C@H](Cc2ccccc2)NC(=O)CC(C)(C)C(=O)O)CSC1(C)C [Ref. Ex. 2, (R)-N-t-butyl-3-[(2S,3S)-3-(3,3-dimethylsuccinyl)amino-2-hydroxy-4-phenylbutyryl]-5,5-dimethyl-1,3-thiazolidine-4-carboxamide] |  | (76%) | 99 | 
Cc1ccccc1CNC(=O)[C@H]1N(C(=O)[C@@H](O)[C@H](Cc2ccccc2)NC(=O)CC(C)(C)C(=O)OC[C@H]2O[C@@H](n3cc(C)c(=O)[nH]c3=O)CC2N=[N+]=[N-])CSC1(C)C (some centres unmarked) [Working Ex. 6] |  |  | 83 | EC50 [1]: 0.24 nM
Cc1cn([C@H]2C[C@H](N=[N+]=[N-])[C@@H](CO)O2)c(=O)[nH]c1=O [AZT, 3′-azido-3′-deoxythymidine, reference compound] | 11 |  |  | 
Cc1ccccc1CNC(=O)[C@@H]1CSCN1C(=O)[C@@H](O)[C@H](Cc1ccccc1)NC(=O)CC(C)(C)C(=O)OC[C@H]1O[C@@H](n2cc(C)c(=O)[nH]c2=O)CC1N=[N+]=[N-] (some centres unmarked) [Working Ex. 4] |  |  | 11 | EC50 [1]: 3.8 nM
Cc1ccccc1CNC(=O)[C@H]1N(C(=O)[C@@H](O)[C@H](Cc2ccccc2)NC(=O)C(C)C(C)C(=O)OC[C@H]2O[C@@H](n3cc(C)c(=O)[nH]c3=O)CC2N=[N+]=[N-])CSC1(C)C (stereo partly drawn) [Working Ex. 7, {(2S,5R)-3-azido-5-[5-methyl-2,4-dioxo-3,4-dihydro-1(2H)-pyrimidinyl]tetrahydro-2-furanyl}methyl 4-([(1S,2S)-1-benzyl-3-((4R)-5,5-dimethyl-4-{[(2-methylbenzyl)amino]carbonyl}-1,3-thiazolidin-3-yl)-2-hydroxy-3-oxopropyl]amino}-2,3-dimethyl-4-oxobutanoate] | 7.3 |  |  | inhibition at 0.05 µM (recombinant HIV protease; pH 5.5, final concentration of Test Compound 50 nM, read-out: Inhibition of HIV protease (inhibitory rate, values in parentheses)): 39%; inhibition at 5 µM (recombinant HIV protease; pH 5.5): 96%
Cc1ccccc1CNC(=O)[C@@H]1CSCN1C(=O)[C@@H](O)[C@H](Cc1ccccc1)NC(=O)CC(C)(C)C(=O)O [Ref. Ex. 3, (R)-N-(2-methylbenzyl)-3-[(2S,3S)-3-(3,3-dimethylsuccinyl)amino-2-hydroxy-4-phenylbutyryl]-1,3-thiazolidine-4-carboxamide] |  |  | 87 | 
Cc1ccccc1CNC(=O)[C@H]1N(C(=O)[C@@H](O)[C@H](Cc2ccccc2)NC(=O)CC(C)(C)C(=O)O)CSC1(C)C [Ref. Ex. 4, (R)-N-(2-methylbenzyl)-3-[(2S,3S)-3-(3,3-dimethylsuccinyl)amino-2-hydroxy-4-phenylbutyryl]-5,5-dimethyl-1,3-thiazolidine-4-carboxamide] |  | (78%) | 100 | 
CC(C)(C)NC(=O)[C@@H]1CSCN1C(=O)[C@@H](O)[C@H](Cc1ccccc1)NC(=O)CC(C)(C)C(=O)O [Ref. Ex. 1, (R)-N-t-butyl-3-[(2S,3S)-3-(3,3-dimethylsuccinyl)amino-2-hydroxy-4-phenylbutyryl]-1,3-thiazolidine-4-carboxamide] |  | (20%) | 93 | 
